Structures are written as SMILES.

As usually defined, the melting point is the temperature of the solid-liquid transition. Regarding `CCc1nc2c(cnn2CC)c(NC2CCOCC2)c1CNC(=O)c1cccc(C(=O)NCc2ccc(OC)c(Br)c2)c1`, the melting point was in the range of 130 to 132 °C.

On to `COC(=O)[C@H](Cc1ccc(-c2cn(C)c(=O)n(C)c2=O)cc1)NC(=O)c1c(C)cccc1Cl`, for which the melting point is 155 to 157 °C.

Turning to `COC(=O)C1Cc2sc(N)c(C(=O)c3ccccc3Cl)c2C1` (configuration not stated), the melting point lay in the range of 120 to 125 °C.

For `CN(C)C(=O)CCC12CC(c3ccccc31)c1ccccc12`, the melting point lay in the range of 186 to 187 °C.

On to `O=C(Cc1ccc(Cl)c(Cl)c1)N1CCCC(N2CCCC2)C1` (configuration not stated), for which the melting point lay in the range of 134 to 135 °C.

`COC(OC)c1cc(-n2c(=O)cc(C(F)(F)F)n(C)c2=O)ccc1Cl`: the melting point lay within 92 to 94 °C.

`O=C(Nc1ccc(Oc2ccccc2)cc1)N1CCN(c2ccnc3cc(Cl)ccc23)CC1` registered a melting point of 159 to 161 °C.

`COCC#Cc1cc(OC)c2ncc(C(=O)NCc3ccc(Cl)cc3)c(O)c2c1` came in with a melting point of 211 to 213 °C.

`CCOC(=O)C1(NC=O)Cc2ccccc2NC1=O` (configuration not stated): the melting point was 187 to 190 °C.

Take `CCCCCCCC[C@H](N[C@@H](C)C(=O)N1C(=O)N(Cc2ccccc2)C[C@H]1C(=O)O)C(=O)OCC`: the melting point was in the range of 86 to 88 °C.

In the case of `CCCN(O)CCc1ccc2c(c1)C(=O)c1ccccc1CO2`, the melting point fell in the range of 121 to 124 °C.

For the molecule `O=C(NCl)c1cccc(C(=O)NCl)c1`, the melting point lay in the range of 73.5 to 75 °C.

On to `COc1ccc(CN2C(=O)c3ccccc3C2=O)cc1OC`, for which the melting point fell in the range of 160 to 161 °C.

With `O=C(NCc1ccc(Cl)cc1)c1cnc2c(I)cc(CC3CCOCC3)cc2c1O`, the melting point was 257 to 259 °C.

For the molecule `CC(C)c1cc(C(=O)Nc2ccc(C(=O)O)cn2)oc1C(C)C`, the melting point was 278 to 279 °C.

With `O=C(O)CNC(=O)CC1=C(n2nc(-c3c(-c4ccccc4)nn4ccccc34)ccc2=O)CCCC1`, the melting point was 190 to 192 °C.

`CSc1c(N)nc(N2CCOCC2)nc1Cl` gave a melting point of 115 °C.

In the case of `Cc1cc(Oc2cccc(C(F)(F)F)c2)nn1C(=O)Nc1ccc(Cl)c(Cl)c1`, the melting point is 97 to 99 °C.

The molecule `COc1ccc2c(c1)n(C1CCCCC1)c(=O)n2S(=O)(=O)c1ccc([N+](=O)[O-])cc1` came in with a melting point of 160 °C.

For `CC(=O)SCCS(=O)(=O)N1CCC[C@H]1C(=O)O`, the melting point lay in the range of 63 to 67 °C.

Molecule `CC(OC1CCCCO1)C1CCC2C3CC=C4CC(O)CC(O)C4(C)C3CCC12C` (configuration not stated) had a melting point of 122 to 124 °C.

`Nc1cccc(CN2CCC(NC(=O)NC(=O)c3ccccc3)CC2)c1` displayed a melting point of 194 to 195 °C.

`O=C(O)CCc1cccc(-c2nc(=O)c3ccccc3s2)n1` gave a melting point of 243 to 244 °C.

Regarding `COc1cc(N)c(Cl)cc1C(=O)NC1CCN2CCCC2C1` (configuration not stated), the melting point was 193 to 194 °C.

`CC(=O)NC(=N)N(C)C1CCN(c2nc3ccccc3n2Cc2ccc(F)cc2)CC1` came in with a melting point of 192 °C.

In turn, `CCCc1nn(-c2ccc(C(F)(F)F)cn2)cc1CCC(=O)OCC` came in with a melting point of 73 to 74 °C.

As for `CC(C)n1c(C=CC=O)c(-c2ccc(F)cc2)c(-c2ccc(F)cc2)c1C=CC=O`, the melting point turned out to be 207 °C.

`CC(C)(C)OC(=O)N[C@H](Cc1ccc(Cl)c(Cl)c1)C(=O)N1CCC[C@H]1C(=O)NC1CCc2nc(N)sc2C1` (some centres not stated): the melting point was in the range of 116 to 119 °C.

The molecule `O=C(O)[C@H](Cc1ccccc1)NC(=O)N1CCOCC1` showed a melting point of 57 to 60 °C.

For the molecule `Cc1nn(-c2ccc(C(F)(F)F)cn2)cc1COc1cc(CO)n(C)n1`, the melting point is 128 to 129 °C.

In turn, `Sc1ncc2c(n1)-c1ccc(Cl)cc1C(c1ccccc1Cl)=NC2` gave a melting point of 232 to 234 °C.

For `OC(Cc1cnc(-c2c(F)cccc2F)nn1)c1ccc(Cl)cc1` (configuration not stated), the melting point was 98 to 102 °C.

In turn, `COc1cc(NC(C)C)ccc1CN1C(=O)C(C)(c2ccccc2Cl)c2cc(Cl)ccc21` (configuration not stated) displayed a melting point of 137 °C.

On to `Brc1ccc(OCCc2c[nH]cn2)cc1`, for which the melting point lay in the range of 162 to 165 °C.

Turning to `CC1(C)OC[C@H](CON2C(=O)c3ccccc3C2=O)O1`, the melting point is 100 to 102 °C.

Turning to `COc1ccc(C(=O)N2CCN(CC(=O)N3CC=C(c4cccc(C(F)(F)F)c4)n4ncc(C#N)c43)CC2)cc1`, the melting point fell in the range of 151 to 153 °C.

`CC(NC(=O)C(C)(Cc1c[nH]c2ccccc12)NCc1cc2ccccc2o1)c1ccn(C)c1` (configuration not stated) displayed a melting point of 53 to 57 °C.

`CCCc1cnc(NC(=O)C(c2ccccc2)c2ccccc2)o1` showed a melting point of 122 °C.

As to `CC(=O)OC1CSC(Oc2ccc(I)nc2Cl)C(OC(C)=O)C1OC(C)=O` (configuration not stated), the melting point was 188 °C.

Regarding `CCNC(=O)c1c(NC(=O)c2cc(C(F)(F)F)nn2-c2ncccc2Cl)c(C)cc2nc(C)ccc12`, the melting point was more than 230 °C.

The molecule `O=c1nc(-c2cccc(S(=O)(=O)CCc3ccccc3)n2)sc2ccccc12` came in with a melting point of 162 to 164 °C.

With `CCCOc1ccc(-c2nc3n(c2-c2ccncc2)CCC3)cc1`, the melting point is 148 to 150 °C.

`Cc1c(C(=O)N[C@H](C(=O)O)c2ccc(OCc3ccccc3)cc2)oc2cc(-c3ccc(Cl)cc3)ccc12` gave a melting point of 178 °C.

Turning to `CC(C)c1ccc(C(=O)C2=C(O)C(=O)N(c3ncc(S(=O)(=O)c4ccc([N+](=O)[O-])cc4)s3)C2c2ccc(C(F)(F)F)cc2)cc1` (configuration not stated), the melting point lay in the range of 300 to 302 °C.

Turning to `COc1ccc(CN(C)CCc2ccc(NC(=O)c3cccc(C(=O)c4ccccc4)c3)cc2)cc1OC`, the melting point was 130 °C.

Molecule `CCCCC[C@H]1CC[C@H](c2ncc([C@H]3CC[C@H](CCC)CC3)cn2)CC1` registered a melting point of 98 °C.

Regarding `Cc1ccc2ccc(N3C(=O)c4cccnc4C3OC(=O)N3CCN(C)CC3)nc2n1` (configuration not stated), the melting point came to 226 °C.

The molecule `O=Cc1cccc(OCCn2ncc3ccccc3c2=O)c1` had a melting point of 110 to 111 °C.

Molecule `Nc1nc(-c2ccccc2)c2ncn(C3OC(CO)C(O)C3O)c2n1` (configuration not stated) displayed a melting point of 187 to 190 °C.

The molecule `CC1CC(N2C(=O)c3ccccc3C2=O)C(=O)NC1=O` (configuration not stated) came in with a melting point of 270 to 272 °C.

The molecule `CS(=O)(=O)c1ccc(-c2cnn(CC(=O)c3ccc(C(F)(F)F)cc3)c(=O)c2-c2ccc(F)cc2)cc1` returned a melting point of 205 to 206 °C.

`Cn1nc(-n2ncc(C(N)=S)c2N)c(Cl)c1OC(F)F` registered a melting point of 156 °C.

In the case of `CCOC(=O)CCc1cc([N+](=O)[O-])ccc1O`, the melting point lay within 199 to 200 °C.

Molecule `CS(=O)(=O)c1cc(C(=O)N=C(N)N)ccc1Oc1ccc(=O)[nH]n1` came in with a melting point of 268 to 270 °C.

`CN1CCN(c2cc(Cl)cc3c2c(=O)n(Cc2ccc([N+](=O)[O-])cc2)c(=O)n3Cc2ccccc2)CC1`: the melting point lay in the range of 109 to 113 °C.

On to `CCOc1c(NCc2c(C)cc(C)cc2Cl)c(=O)c1=O`, for which the melting point was in the range of 292 to 294 °C.

Take `COP(=O)(Cc1c2ccccc2cc2ccccc12)OC`: the melting point fell in the range of 152 to 153 °C.

Molecule `CCOC(=O)CC(c1ccccc1)c1ccc(NC(=O)NCCCl)cc1` (configuration not stated) had a melting point of 109 to 111 °C.

With `CCC(=O)Oc1cc(OC)cc(OC)c1C(=O)C=Cc1ccco1`, the melting point worked out at 93.6 °C.

In turn, `CNC1CCC2C3CCc4cc(OC)ccc4C3CCC12C` (configuration not stated) gave a melting point of 136 to 137 °C.

On to `CCCCC[C@@H](CNC(=O)Nc1c(OCC)ncnc1N(C)C)c1cccc2c1OCO2`, for which the melting point was 62 to 64 °C.

Turning to `O=C(O)c1cccc(-c2ccc(F)c3cc(Cc4ccc(F)c(F)c4)sc23)c1`, the melting point was in the range of 224 to 225 °C.

`CC(C)(C)OC(=O)NCC(N)C(=O)N1CCCCC1` (configuration not stated) gave a melting point of 87 to 90 °C.

The molecule `CC(C)[C@H](NC(=O)OCc1ccccc1)C(=O)NCC(=O)OC(C)(C)C` returned a melting point of 139 to 141 °C.

As to `CC(C)C[C@@H](C(=O)O)N(C)Cc1ccc(C(C)(C)C)cc1`, the melting point lay in the range of 110 to 112 °C.

Take `Cn1c(C(F)(F)F)cc(=O)n(-c2ccc(OCc3ccc(Cl)cc3)cc2F)c1=O`: the melting point lay within 134 to 135 °C.

In the case of `CS(=O)(=O)N1CCC(NC(=O)Nc2cccc(F)c2)CC1`, the melting point was in the range of 212 to 214 °C.

`Cc1nn(C)c(NC=O)c1C1=CCC(C)CC1` (configuration not stated) yielded a melting point of 97 to 99 °C.

On to `O=C1CCC(N2Cc3c(OCc4ccc(CN5CCC(O)(c6ccccc6)CC5)cc4)cccc3C2=O)C(=O)N1` (configuration not stated), for which the melting point is 140 to 142 °C.

Molecule `C=CCOc1ccc2ccc(C(=O)OCC)cc2c1` registered a melting point of 60 to 61 °C.

`Cc1cc([C@@H](O)[C@@H]2[C@@H](C)CCCC2(C)C)ccc1C#N` returned a melting point of 111 to 113 °C.

Take `CCOC(=O)C1SC(c2ccc3ccccc3c2)=NN1C(=O)CCSC(C)=O` (configuration not stated): the melting point lay within 107 to 108 °C.

Turning to `O=C1NC(=O)c2c1c(-c1ccccc1)cc1[nH]c3ccc(OP(=O)(O)O)cc3c21`, the melting point is 285 to 295 °C.

Consider `O=C1NCC(c2c[nH]c3ccccc23)C1c1cn2c3c(cccc13)CCC2` (configuration not stated), for which the melting point lay in the range of 241 to 243 °C.

The molecule `CNC(=O)Oc1ccc(NC(=O)C(C)Oc2ccccc2)c(C)c1` (configuration not stated) came in with a melting point of 123 to 125 °C.

`CN(Cc1ccc(Cl)cc1)S(=O)(=O)c1cn(S(=O)(=O)N(C)C)cn1`: the melting point was in the range of 112 to 114 °C.

In the case of `C#CC1(C)OC(=O)Nc2ccc(-c3cccc(Cl)c3)cc21` (configuration not stated), the melting point lay in the range of 185 to 186 °C.

Molecule `N#Cc1ccc2[nH]cc(C3CCC(=O)C3)c2c1` (configuration not stated) had a melting point of 136 to 138 °C.

Consider `Cc1ccc(C(=O)P2(=O)Oc3ccccc3-c3ccccc32)c(C)c1` (configuration not stated), for which the melting point was 166 °C.

`CC(C)(O)Cc1ccc2ccccc2c1` yielded a melting point of 79 to 80 °C.

In the case of `CN1CCN(Cc2c(O)ccc3c2OCO3)CC1`, the melting point lay within 85 to 87 °C.

`CCCn1c(=O)c2c(nc(/C=C/c3ccc4c(c3)OCO4)n2C)n(CCC)c1=O`: the melting point was in the range of 152 to 155 °C.

In the case of `Cc1ccc(NC(=O)c2cc(Cl)ccc2NCC2CCN(C3CCS(=O)(=O)CC3)CC2)nc1`, the melting point was 154 to 156 °C.

Take `COc1cc(CC(=O)NCCOc2scc(C)c2C)ccc1OCCN`: the melting point fell in the range of 85 to 87 °C.

Regarding `O=C(O)c1cnn2c(C(F)(F)F)cc(-c3ccc(Cl)c(Cl)c3)nc12`, the melting point is 264 °C.

As for `O=C(NCCc1ccccc1)c1ccccn1`, the melting point was 58 to 59 °C.

As to `OC1(c2cc(F)cc(OCc3ccccc3)c2)CCOCC1`, the melting point was 112 °C.
